Data: BigSolDB 2.1

CCCSc1ccc2nc(NC(=O)OC)[nH]c2c1
solubility (mole fraction)
Conditions	278.15 K	283.15 K	288.15 K	293.15 K	298.15 K	303.15 K	308.15 K	313.15 K	318.15 K	323.15 K
in acetone	0.00151	0.0018	0.00213	0.00254	0.00297	0.00344	0.00402	0.00463	0.00535	0.00613
in isopropanol	0.000106	0.00013	0.000158	0.000192	0.000229	0.000276	0.00033	0.000388	0.000453	0.000532
in methanol	8.85e-05	0.000109	0.000132	0.000159	0.000193	0.00023	0.000273	0.000327	0.000381	0.000448
in water	1.59e-07	2.16e-07	2.9e-07	3.99e-07	5.31e-07	6.93e-07	9.18e-07	1.19e-06	1.56e-06	1.98e-06
